Assay results published in patent publication US20230024302A1, “2,3,5-TRISUBSTITUTED PYRAZOLO[1,5-A]PYRIMIDINE COMPOUNDS” (Arcus Biosciences, Inc., priority 2019, published 2023).
Read-outs that look alike come from different tables or passages of the source.

What was measured:
[1] = biological target: T1, PI3Kγ (p120γ) (Homo sapiens, UniProt P48736); assay: Inhibition of PI3K kinase activity (ADP Glo), PI3Kγ; settings: read-out: biochemical potency (PI3Kγ IC50)
T1 construct: purchased Promega V1761
Procedure, shortened: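 Recombinant p120γ (8 nM, 2× stock) was preincubated with compound for 1 h at rt in HEPES pH 7.4, NaCl, MgCl2 and 0.05% BSA. Reaction was started with PIP2 (0.1 mg/ml, 2×) and ATP (50 μM, 2×) and ran 60 min at rt. ADP formed was read by ADP-Glo luminescence, and IC50 came from a 4-parameter fit.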

[2] = biological target: T2, PI3Kγ (Homo sapiens, UniProt P48736); assay: PI3Kγ cellular assay in THP-1 cells (AKT pS473 AlphaLISA); assay type: cell-based
T2 construct: host or cells: THP-1
Procedure, shortened: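 Serum-starved THP-1 cells (1.8×10^5/well, serum-free DMEM) treated with compounds from 4 nM to 30 μM in 2% DMSO, then stimulated and lysed.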

[3] = Table 2, rhMCP-1 stimulated AKT pS473, read-out: cellular potency (PI3Kγ IC50)
[4] = Table 1, rhMCP-1 stimulated AKT pS473, read-out: cellular potency (PI3Kγ IC50)
[5] = AKT pS473, read-out: cellular potency (PI3Kγ IC50)
[6] = Table 6, rhMCP-1 stimulated AKT pS473, read-out: cellular potency (PI3Kγ IC50)

T2 sequence (P48736 whole entry): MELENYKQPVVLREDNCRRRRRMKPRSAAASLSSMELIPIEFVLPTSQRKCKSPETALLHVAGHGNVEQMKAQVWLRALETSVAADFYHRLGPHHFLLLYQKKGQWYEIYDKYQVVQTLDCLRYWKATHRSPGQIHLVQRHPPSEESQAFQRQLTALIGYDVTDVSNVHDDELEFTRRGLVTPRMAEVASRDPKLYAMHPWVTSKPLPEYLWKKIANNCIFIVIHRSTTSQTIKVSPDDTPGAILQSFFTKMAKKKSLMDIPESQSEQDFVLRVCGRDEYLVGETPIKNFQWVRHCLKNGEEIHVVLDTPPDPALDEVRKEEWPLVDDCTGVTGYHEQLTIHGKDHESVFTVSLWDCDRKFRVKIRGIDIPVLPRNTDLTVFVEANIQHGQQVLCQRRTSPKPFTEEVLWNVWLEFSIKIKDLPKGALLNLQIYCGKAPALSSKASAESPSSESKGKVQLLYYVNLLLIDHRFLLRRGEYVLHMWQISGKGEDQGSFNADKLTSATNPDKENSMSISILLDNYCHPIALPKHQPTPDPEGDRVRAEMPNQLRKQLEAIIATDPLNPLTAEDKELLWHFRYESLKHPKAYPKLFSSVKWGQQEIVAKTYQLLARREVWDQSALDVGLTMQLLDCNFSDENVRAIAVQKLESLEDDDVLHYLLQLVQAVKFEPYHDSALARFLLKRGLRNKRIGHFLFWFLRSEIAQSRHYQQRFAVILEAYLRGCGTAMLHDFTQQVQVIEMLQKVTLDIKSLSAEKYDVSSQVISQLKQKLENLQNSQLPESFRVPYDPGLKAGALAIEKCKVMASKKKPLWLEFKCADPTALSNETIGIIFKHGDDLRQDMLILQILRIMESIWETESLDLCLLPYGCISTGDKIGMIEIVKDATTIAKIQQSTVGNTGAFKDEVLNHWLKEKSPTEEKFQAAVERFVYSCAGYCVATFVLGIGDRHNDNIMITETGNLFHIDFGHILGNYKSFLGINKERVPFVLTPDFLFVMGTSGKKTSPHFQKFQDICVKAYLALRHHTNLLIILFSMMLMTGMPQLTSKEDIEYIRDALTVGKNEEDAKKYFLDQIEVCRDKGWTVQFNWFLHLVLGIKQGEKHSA
T1 sequence (P48736 whole entry): as above

## Cc1cc(-c2ccn3nc(N)c(C(=O)NC4(CCO)CC4)c3n2)cc2c1C(=O)N([C@@H](C)C1CC1)C2 [Example 228]
[1]; Table 2, p120γ
  IC50: < 100 nM
[2]; [3]
  IC50: 100 to 1000 nM

## Cc1cc(-c2ccn3nc(N)c(C(=O)N[C@H]4CCC[C@H]4O)c3n2)cc2c1C(=O)N([C@@H](C)C1CC1)C2 [Example 264]
[1]; Table 2, p120γ
  IC50: < 100 nM
[2]; [3]
  IC50: 100 to 1000 nM

## Cc1cc(-c2ccn3nc(N)c(C(=O)N[C@H](C)c4ccccc4F)c3n2)cc2c1C(=O)N(C(C)(C)CO)C2 [Example 317]
[1]; Table 2, p120γ
  IC50: < 100 nM
[2]; [3]
  IC50: > 1000 nM

## Cc1cc(-c2ccn3nc(N)c(C(=O)NCC4CC4)c3n2)cc2c1C(=O)N([C@@H](C)C1CC1)C2 [Example 213]
[1]; Table 2, p120γ
  IC50: < 100 nM
[2]; [3]
  IC50: 100 to 1000 nM

## C[C@@H](C1CC1)N1Cc2cc(-c3ccn4nc(N)c(C(=O)N[C@@H](CO)C5CC5)c4n3)cnc2C1=O [Example 454]
[1]; Table 7, p120γ
  IC50: < 100 nM
[2]; Table 7, rhMCP-1 stimulated AKT pS473, read-out: cellular potency (PI3Kγ IC50)
  IC50: > 1000 nM

## Cc1cc(-c2ccn3nc(N)c(C(=O)N[C@H]4C[C@](C)(O)C4)c3n2)cc2c1C(=O)N([C@@H](C)C1CC1)C2 [Example 6, 2-Amino-5-{2-[(1S)-1-cyclopropylethyl]-7-methyl-1-oxo-2,3-dihydro-1H-isoindol-5-yl}-N-[trans-3-hydroxy-3-methylcyclobutyl]pyrazolo[1,5-a]pyrimidine-3-carboxamide]
[1]; Table 1, p120γ
  IC50: < 100 nM
[2]; [4]
  IC50: < 100 nM

## Cc1cc(-c2ccn3nc(N)c(C(=O)N[C@@H]4CCCNC4)c3n2)cc2c1C(=O)N([C@@H](C)C1CC1)C2 [Example 231]
[1]; Table 2, p120γ
  IC50: < 100 nM
[2]; [3]
  IC50: 100 to 1000 nM

## Cc1cc(-c2ccn3nc(N)c(C(=O)Nc4cnn(C)c4C)c3n2)cc2c1C(=O)N([C@@H](C)C1CC1)C2 [Example 19, 2-Amino-5-{2-[(1S)-1-cyclopropylethyl]-7-methyl-1-oxo-2,3-dihydro-1H-isoindol-5-yl}-N-(1,5-dimethyl-1H-pyrazol-4-yl)pyrazolo[1,5-a]pyrimidine-3-carboxamide]
[1]; Table 1, p120γ
  IC50: < 100 nM
[2]; [4]
  IC50: < 100 nM

## C[C@@H](NC(=O)c1c(N)nn2ccc(-c3cc4c(c(NS(C)(=O)=O)c3)C(=O)N([C@@H](C)C3CC3)C4)nc12)c1cnn(C)c1 [Example 98, 2-Amino-5-{2-[(1S)-1-cyclopropylethyl]-7-methanesulfonamido-1-oxo-2,3-dihydro-1H-isoindol-5-yl}-N-[(1R)-1-(1-methyl-1H-pyrazol-4-yl)ethyl]pyrazolo[1,5-a]pyrimidine-3-carboxamide]
[1]; Table 1, p120γ
  IC50: < 100 nM
[2]; [4]
  IC50: < 100 nM

## C[C@@H](C1CC1)N1Cc2cc(-c3ccn4nc(N)c(C(=O)Nc5ccncc5)c4n3)cc(C(F)(F)F)c2C1=O [Example 69, (S)-2-Amino-5-(2-(1-cyclopropylethyl)-1-oxo-7-(trifluoromethyl)isoindolin-5-yl)-N-(pyridin-4-yl)pyrazolo[1,5-a]pyrimidine-3-carboxamide]
[1]; Table 1, p120γ
  IC50: < 100 nM
[2]; [4]
  IC50: < 100 nM

## Cc1cc(-c2ccn3nc(N)c(C(=O)N[C@H](C)CN)c3n2)cc2c1C(=O)N([C@@H](C)C1CC1)C2 [Example 230]
[1]; Table 2, p120γ
  IC50: < 100 nM
[2]; [3]
  IC50: 100 to 1000 nM

## C[C@H](N1Cc2cc(-c3ccn4nc(N)c(C(=O)Nc5ccccc5)c4n3)cc(NS(C)(=O)=O)c2C1=O)C(F)(F)F [Example 403]
[1]
  IC50: < 100 nM
[2]; [5]
  IC50: 100 to 1000 nM

## Cc1cc(-c2ccn3nc(N)c(C(=O)Nc4cnn(C)c4F)c3n2)cc2c1C(=O)N([C@@H](C)C1CC1)C2 [Example 296]
[1]; Table 2, p120γ
  IC50: < 100 nM
[2]; [3]
  IC50: 100 to 1000 nM

## Cc1cc(-c2ccn3nc(N)c(C(=O)N[C@H]4CC[C@@H](C(=O)O)CC4)c3n2)cc2c1C(=O)N([C@@H](C)C1CC1)C2 [Example 193]
[1]; Table 2, p120γ
  IC50: < 100 nM
[2]; [3]
  IC50: 100 to 1000 nM

## C[C@@H](C1CC1)N1Cc2cc(-c3ccn4nc(N)c(C(=O)N[C@H]5C[C@@](C)(O)C5)c4n3)cc(N3CC[C@@H](O)C3)c2C1=O [Example 432]
[1]; Table 6, p120γ
  IC50: < 100 nM
[2]; [6]
  IC50: 100 to 1000 nM

## C[C@@H](C1CC1)N1Cc2cc(-c3ccn4nc(N)c(C(=O)N[C@@H]5CCC[C@H](N(C)C)C5)c4n3)cc(OC(F)(F)F)c2C1=O [Example 34, 2-Amino-5-{2-[(1S)-1-cyclopropylethyl]-1-oxo-7-(trifluoromethoxy)-2,3-dihydro-1H-isoindol-5-yl}-N-[(1R,3S)-3-(dimethylamino)cyclohexyl]pyrazolo[1,5-a]pyrimidine-3-carboxamide]
[1]; Table 1, p120γ
  IC50: < 100 nM
[2]; [4]
  IC50: < 100 nM

## Cc1cc(-c2ccn3nc(N)c(C(=O)N[C@@H]4CCNC4)c3n2)cc2c1C(=O)N([C@@H](C)C1CC1)C2 [Example 218]
[1]; Table 2, p120γ
  IC50: < 100 nM
[2]; [3]
  IC50: 100 to 1000 nM

## C[C@@H](C1CC1)N1Cc2cc(-c3ccn4nc(N)c(C(=O)N[C@H]5CC[C@@](C)(O)CC5)c4n3)cc(N3CC[C@@H](O)C3)c2C1=O [Example 151, 2-Amino-5-{2-[(1S)-1-cyclopropylethyl]-7-[(3R)-3-hydroxypyrrolidin-1-yl]-1-oxo-2,3-dihydro-1H-isoindol-5-yl}-N-[cis-4-hydroxy-4-methylcyclohexyl]pyrazolo[1,5-a]pyrimidine-3-carboxamide]
[1]; Table 1, p120γ
  IC50: < 100 nM
[2]; [4]
  IC50: < 100 nM

## Cc1cc(-c2ccn3nc(N)c(C(=O)N[C@H]4CC[C@H](O)C4)c3n2)cc2c1C(=O)N([C@@H](C)C1CC1)C2 [Example 3, 2-Amino-5-{2-[(1S)-1-cyclopropylethyl]-7-methyl-1-oxo-2,3-dihydro-1H-isoindol-5-yl}-N-[(1S,3S)-3-hydroxycyclopentyl]pyrazolo[1,5-a]pyrimidine-3-carboxamide]
[1]; Table 1, p120γ
  IC50: < 100 nM
[2]; [4]
  IC50: < 100 nM

## C[C@@H](C1CC1)N1Cc2cc(-c3ccn4nc(N)c(C(=O)N[C@H]5C[C@H](O)C5)c4n3)cc(C(F)(F)F)c2C1=O [Example 65, 2-Amino-5-{2-[(1S)-1-cyclopropylethyl]-1-oxo-7-(trifluoromethyl)-2,3-dihydro-1H-isoindol-5-yl}-N-[trans-3-hydroxycyclobutyl]pyrazolo[1,5-a]pyrimidine-3-carboxamide]
[1]; Table 1, p120γ
  IC50: < 100 nM
[2]; [4]
  IC50: < 100 nM

## CC(C)c1cc(-c2ccn3nc(N)c(C(=O)NC4CC4)c3n2)cc2c1C(=O)N([C@@H](C)C1CC1)C2 [Example 169, 2-Amino-N-cyclopropyl-5-{2-[(1S)-1-cyclopropylethyl]-1-oxo-7-(propan-2-yl)-2,3-dihydro-1H-isoindol-5-yl}pyrazolo[1,5-a]pyrimidine-3-carboxamide]
[1]; Table 1, p120γ
  IC50: < 100 nM
[2]; [4]
  IC50: < 100 nM

## Cc1cc(-c2ccn3nc(N)c(C(=O)NCC4COC4)c3n2)cc2c1C(=O)N([C@@H](C)C1CC1)C2 [Example 226]
[1]; Table 2, p120γ
  IC50: < 100 nM
[2]; [3]
  IC50: 100 to 1000 nM

## CNS(=O)(=O)c1cc(-c2ccn3nc(N)c(C(=O)NC4CC4)c3n2)cc2c1C(=O)N([C@@H](C)C1CC1)C2 [Example 142, 2-Amino-N-cyclopropyl-5-{2-[(1S)-1-cyclopropylethyl]-7-(methylsulfamoyl)-1-oxo-2,3-dihydro-1H-isoindol-5-yl}pyrazolo[1,5-a]pyrimidine-3-carboxamide]
[1]; Table 1, p120γ
  IC50: < 100 nM
[2]; [4]
  IC50: < 100 nM

## C[C@@H](C1CC1)N1Cc2cc(-c3ccn4nc(N)c(C(=O)NC[C@H]5C[C@H](O)C5)c4n3)cc(NS(C)(=O)=O)c2C1=O [Example 85, 2-Amino-5-{2-[(1S)-1-cyclopropylethyl]-7-methanesulfonamido-1-oxo-2,3-dihydro-1H-isoindol-5-yl}-N-{[trans-3-hydroxycyclobutyl]methyl}pyrazolo[1,5-a]pyrimidine-3-carboxamide]
[1]; Table 1, p120γ
  IC50: < 100 nM
[2]; [4]
  IC50: < 100 nM

## C[C@@H](C1CC1)N1Cc2cc(-c3ccn4nc(N)c(C(N)=O)c4n3)cc(NS(C)(=O)=O)c2C1=O [Example 76, 5-{2-[(S)-1-Cyclopropylethyl]-7-(methylsulfonylamino)-5-isoindolinoyl}-2-amino-1,4,7a-triaza-3-indenecarboxamide]
[1]; Table 1, p120γ
  IC50: < 100 nM
[2]; [4]
  IC50: 100 to 1000 nM

## C[C@H](N1Cc2cc(-c3ccn4nc(N)c(C(=O)NC5CC5)c4n3)cc(N3CC[C@@H](O)C3)c2C1=O)C(F)(F)F [Example 431]
[1]; Table 6, p120γ
  IC50: < 100 nM
[2]; [6]
  IC50: 100 to 1000 nM

## Cc1cc(-c2ccn3nc(N)c(C(=O)NCc4cnn(C)c4)c3n2)cc2c1C(=O)N([C@@H](C)C1CC1)C2 [Example 214]
[1]; Table 2, p120γ
  IC50: < 100 nM
[2]; [3]
  IC50: 100 to 1000 nM

## C[C@@H](C1CC1)N1Cc2cc(-c3ccn4nc(N)c(C(=O)NCCC(C)(C)O)c4n3)cc(C(F)(F)F)c2C1=O [Example 59, 2-[(S)-1-Cyclopropylethyl]-5-{2-amino-3-[(3-hydroxy-3-methylbutylamino)carbonyl]-1,4,7a-triaza-5-indenyl}-7-(trifluoromethyl)-1-isoindolinone]
[1]; Table 1, p120γ
  IC50: < 100 nM
[2]; [4]
  IC50: < 100 nM

## C[C@@H](C1CC1)N1Cc2cc(-c3ccn4nc(N)c(C(=O)Nc5ccccc5F)c4n3)cc(NS(C)(=O)=O)c2C1=O [Example 397]
[1]
  IC50: < 100 nM
[2]; [5]
  IC50: 100 to 1000 nM

## C[C@@H](C1CC1)N1Cc2cc(-c3ccn4nc(N)c(C(=O)NCC5(O)CC5)c4n3)cc(NS(C)(=O)=O)c2C1=O [Example 381]
[1]
  IC50: < 100 nM
[2]; [5]
  IC50: 100 to 1000 nM

## Cc1nn(C)cc1NC(=O)c1c(N)nn2ccc(-c3cc4c(c(OC(F)F)c3)C(=O)N([C@@H](C)C3CC3)C4)nc12 [Example 429]
[1]; Table 6, p120γ
  IC50: < 100 nM
[2]; [6]
  IC50: < 100 nM
